# Experimental data from US11331290B2, “Niclosamide for the treatment of cancer metastasis” (Max-Delbrück-Centrum für Molekulare Medizin in der …, priority 2011, dated 2022).
# Biological target: T1, CTNNB1/TCF complex (Homo sapiens, UniProt P35222, DEL45-45)
# T1 construct: endogenous in cells; host or cells: HCT116 nuclear extract
# T1 sequence (P35222 1-781): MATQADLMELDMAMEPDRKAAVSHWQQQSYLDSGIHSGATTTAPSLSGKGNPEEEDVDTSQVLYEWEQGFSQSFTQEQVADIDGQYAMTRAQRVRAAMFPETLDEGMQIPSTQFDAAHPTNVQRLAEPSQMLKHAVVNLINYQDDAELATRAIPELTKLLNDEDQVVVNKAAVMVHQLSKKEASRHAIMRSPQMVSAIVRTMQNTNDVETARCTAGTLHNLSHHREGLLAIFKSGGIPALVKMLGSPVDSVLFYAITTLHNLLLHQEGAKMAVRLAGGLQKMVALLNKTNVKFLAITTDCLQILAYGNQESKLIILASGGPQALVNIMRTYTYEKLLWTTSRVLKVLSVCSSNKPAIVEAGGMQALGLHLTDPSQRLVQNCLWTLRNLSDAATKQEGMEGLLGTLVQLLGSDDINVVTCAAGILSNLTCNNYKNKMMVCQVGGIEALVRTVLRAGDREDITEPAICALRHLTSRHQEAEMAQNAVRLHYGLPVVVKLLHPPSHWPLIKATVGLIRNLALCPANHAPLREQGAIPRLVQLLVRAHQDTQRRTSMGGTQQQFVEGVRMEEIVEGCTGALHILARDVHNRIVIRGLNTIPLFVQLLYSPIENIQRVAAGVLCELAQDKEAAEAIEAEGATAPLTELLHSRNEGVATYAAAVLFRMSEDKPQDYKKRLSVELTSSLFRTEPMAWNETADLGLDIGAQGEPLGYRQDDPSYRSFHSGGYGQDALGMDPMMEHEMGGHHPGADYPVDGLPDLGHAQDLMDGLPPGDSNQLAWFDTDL
# T1 sequence (P35222 with tags, fused parts or gaps DEL45-45): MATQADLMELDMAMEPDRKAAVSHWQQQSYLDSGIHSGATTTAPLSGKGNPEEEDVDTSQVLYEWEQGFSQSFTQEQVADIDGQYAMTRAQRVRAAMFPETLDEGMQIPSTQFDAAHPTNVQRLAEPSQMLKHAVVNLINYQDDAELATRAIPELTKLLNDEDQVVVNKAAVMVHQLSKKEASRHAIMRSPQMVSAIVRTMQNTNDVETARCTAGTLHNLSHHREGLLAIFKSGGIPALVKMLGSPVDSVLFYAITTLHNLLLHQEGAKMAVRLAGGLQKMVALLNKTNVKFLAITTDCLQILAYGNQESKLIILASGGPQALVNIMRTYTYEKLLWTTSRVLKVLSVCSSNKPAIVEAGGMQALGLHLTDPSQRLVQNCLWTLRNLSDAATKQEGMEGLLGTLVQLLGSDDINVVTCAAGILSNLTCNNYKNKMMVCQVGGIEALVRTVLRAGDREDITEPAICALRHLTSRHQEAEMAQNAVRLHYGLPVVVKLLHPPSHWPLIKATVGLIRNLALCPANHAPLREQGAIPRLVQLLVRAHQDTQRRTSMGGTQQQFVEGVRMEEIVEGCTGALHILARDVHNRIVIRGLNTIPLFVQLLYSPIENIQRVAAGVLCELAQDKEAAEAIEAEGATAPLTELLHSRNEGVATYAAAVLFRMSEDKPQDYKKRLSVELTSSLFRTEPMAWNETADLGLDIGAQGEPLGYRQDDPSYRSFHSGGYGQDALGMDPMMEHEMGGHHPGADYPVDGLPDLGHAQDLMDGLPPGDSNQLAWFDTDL
# Assay: Electrophoretic mobility shift assay (EMSA), TCF-binding site of the S100A4 promoter
# Assay type: cell-based
# Experimental: Electrophoretic mobility shift assay (EMSA) was performed as described earlier (4). 5×10^6 HCT116 cells were plated into a 10 cm culture dish and were given 15 hour to attach to the bottom of the dish. Cells were treated with 0.1, 0.3, 0.6 or 1 μM niclosamide or the respective amount of DMSO for 24 hours. For each condition 5 μg nuclear extracted protein was incubated 30 minutes at room temperature with 0.05% w/v poly dI⋅dC, 0.5 mM Tris, 0.05 mM EDTA, 2.5% v/v glycerol, 0.2% v/v NP-40, 5 mM MgCl2 and double-stranded biotinylated oligonucleotides (sense 5′-[…]-3′, antisense 3′-[…] T-5′) encompassing the TCF-binding site of the S100A4 promoter. For supershift 1.25 μg monoclonal CTNNB1 antibody (BD Biosciences) was added. […]
# For WNT pathway analysis the following cells were applied: HCT116 cells (heterozygous for gain-of-function-mutated CTNNB1; wt/mut), HAB-68mut cells (deletion mutant of HCT116, expressing only gain-of-function-mutated CTNNB1: −/mut) and HAB-92 wt cells (deletion mutant of HCT116, expressing only wild-type CTNNB1: wt/−). […] Reporter gene expression was determined by luciferase activity measurement. […] S100A4 expression was analyzed by qRT-PCR and immunoblot. […] Cells were treated with 1 μM niclosamide for 24 hours and cell migration was determined by Boyden chamber assay. […] Differences were analyzed by Student's t test (n.s.; not statistically significant). […]
compound,measurement,setting,value
"O=C(Nc1ccc([N+](=O)[O-])cc1Cl)c1cc(Cl)ccc1O [niclosamide, 2′,5-dichloro-4′-nitrosalicylanilide]",supershift with monoclonal anti-CTNNB1,nuclear extracts from 1 μM niclosamide-treated HCT116 cells,No supershift could be detected
same,CTNNB1/TCF/oligo complex,"nuclear extracts of HCT116 cells, increasing concentrations (0.1, 0.3, 0.6 or 1 μM)",interrupted the CTNNB1/TCF/oligo complex in a concentration-dependent manner
